Measured values from patent US12070447B2, “Parenteral liquid preparation comprising carbamate compound” (SK BIOPHARMACEUTICALS CO., LTD., priority 2016, dated 2024).
Converted amounts (≈) assume the structure as drawn. Where two headings read alike, the source gives them in different places.

How the values were obtained:
[1] = Saturation solubility according to the concentration of cyclodextrin derivative; type: physicochemical; conditions: for solubility at 6 h: aqueous with cosolvent or surfactant or cyclodextrin; for solubility at 6 h / solubility: thermodynamic from solid, water for injection, room temperature; for solubility: water for injection without cyclodextrin, water, 0 % W/V cyclodextrin derivative (Comparative Example, no cyclodextrin)
Description: 2-Hydroxypropyl-β-cyclodextrin (trade name: Cavitron) and sulfobutyl ether-β-cyclodextrin sodium salt (trade name: Captisol) as cyclodextrin compounds were each dissolved in water for injection at various concentrations as shown in Table 1. To this was added an excess amount of carbamic acid (R)-1-(2-chlorophenyl)-2-tetrazol-2-yl)ethyl ester, and the mixture was stirred at room temperature for 6 hours. The mixture was then filtered through a membrane filter to remove insolubles, and the amount of carbamic acid (R)-1-(2-chlorophenyl)-2-tetrazol-2-yl)ethyl ester in the filtrate was measured by high performance liquid chromatography, by which the saturation solubility was calculated. The column used in this experiment was a 75×4.6 mm, 3.5 μm C18 column, and the mobile phase was a mixed solution of 20% by volume of acetonitrile and 80% by volume of 10 mM phosphate buffer (pH 3.0). The flow rate was 2.0 mL/min, and detection was performed at 215 nm.
As a comparative example, the saturation solubility of carbamic acid (R)-1-(2-chlorophenyl)-2-tetrazol-2-yl)ethyl ester to which no cyclodextrin compound had been added was measured at room temperature.
The calculated saturation solubility values are shown in Table 1, and the same results are shown graphically in FIG. 1.

[2] = Saturation solubility according to pH change; type: physicochemical; conditions: for solubility at 12 h: thermodynamic from solid
Description: The solubility of carbamic acid (R)-1-(2-chlorophenyl)-2-tetrazol-2-yl)ethyl ester in various aqueous (water) solvent conditions was measured: (1) purified water, (2) pH 1 hydrochloric acid solution, and (3) pH 3 to 8 phosphate buffer solution. Specifically, about 50 mg of carbamic acid (R)-1-(2-chlorophenyl)-2-tetrazol-2-yl)ethyl ester was placed in a suitable glass vial and 15 mL of solvent was added. The mixture was slowly stirred at room temperature for 12 hours on a rotary stirrer to reach equilibrium. Two samples for each aqueous solvent were transferred to a microtube, and centrifuged, and the pH was measured by taking the supernatant. After dilution with diluted solution for analysis, the concentration was analyzed using high performance liquid chromatography under the same conditions as in Experimental Example 1 above.

In the case of `NC(=O)O[C@@H](Cn1ncnn1)c1ccccc1Cl` [carbamic acid (R)-1-(2-chlorophenyl)-2-tetrazol-2-yl)ethyl ester], the “Solubility when cyclodextrin compound was added, compared with comparative example without cyclodextrin” value ([1]; Cavitron or Captisol added, in words) is reported as “significantly improved”, the solubility at 6 h ([1]; Captisol 10 % W/V) is reported as 12800 µg/mL (≈ 47.8 mM) and the solubility at 6 h ([1]; Captisol 15 % W/V) is reported as 18000 µg/mL (≈ 67.2 mM). The solubility at 6 h ([1]; Captisol 20 % W/V) was 24500 µg/mL (≈ 91.5 mM), the solubility at 6 h ([1]; Captisol 30 % W/V) was 32500 µg/mL (≈ 121 mM) and the solubility at 6 h ([1]; Captisol 40 % W/V) was 45100 µg/mL (≈ 168 mM). It also gave a solubility at 6 h ([1]; Captisol (sulfobutyl ether-β-cyclodextrin sodium salt) 5 % W/V) of 6700 µg/mL, a solubility at 6 h ([1]; Cavitron 10 % W/V) of 13200 µg/mL (≈ 49.3 mM) and a solubility at 6 h ([1]; Cavitron 15 % W/V) of 19800 µg/mL (≈ 74 mM). It also gave a solubility at 6 h ([1]; Cavitron 20 % W/V) of 27900 µg/mL (≈ 104 mM), a solubility at 6 h ([1]; Cavitron 30 % W/V) of 38600 µg/mL (≈ 144 mM) and a solubility at 6 h ([1]; Cavitron 40 % W/V) of 49500 µg/mL (≈ 185 mM). It also gave a solubility at 6 h ([1]; Cavitron (2-hydroxypropyl-β-cyclodextrin) 5 % W/V) of 5500 µg/mL (≈ 20.5 mM), a solubility ([1]; Captisol column) of 1800 µg/mL (≈ 6.72 mM) and a solubility ([1]; Cavitron column) of 1800 µg/mL (≈ 6.72 mM). For the same molecule, the solubility at 12 h ([2]; pH 1 hydrochloric acid solution, pH 1, simulated gastric fluid, pH 1 hydrochloric acid solution, room temperature, read-out: Concentration (saturation solubility), Mean) was 1950 µg/mL (≈ 7.28 mM), the solubility at 12 h ([2]; pH 1 hydrochloric acid solution, pH 1, simulated gastric fluid, pH 1 hydrochloric acid solution, room temperature, read-out: Concentration (saturation solubility), Test solution 1) was 1940 µg/mL (≈ 7.25 mM) and the solubility at 12 h ([2]; pH 1 hydrochloric acid solution, pH 1, simulated gastric fluid, pH 1 hydrochloric acid solution, room temperature, read-out: Concentration (saturation solubility), Test solution 2) was 1970 µg/mL (≈ 7.36 mM). The “Effect of change in pH on solubility” value ([2]; pH 1 to 8 aqueous solvents, in words) was “not greatly affected by the change in pH”, the solubility at 12 h ([2]; pH 3.0 phosphate buffer solution, pH 3, aqueous buffer, pH 3.0 phosphate buffer solution, final pH 3.1, room temperature, read-out: Concentration (saturation solubility), Mean) was 1870 µg/mL (≈ 6.99 mM) and the solubility at 12 h ([2]; pH 3.0 phosphate buffer solution, pH 3, aqueous buffer, pH 3.0 phosphate buffer solution, final pH 3.1, room temperature, read-out: Concentration (saturation solubility), Test solution 1) was 1870 µg/mL (≈ 6.99 mM). It also gave a solubility at 12 h ([2]; pH 3.0 phosphate buffer solution, pH 3, aqueous buffer, pH 3.0 phosphate buffer solution, final pH 3.1, room temperature, read-out: Concentration (saturation solubility), Test solution 2) of 1860 µg/mL (≈ 6.95 mM), a solubility at 12 h ([2]; pH 5.0 phosphate buffer solution, pH 5, aqueous buffer, pH 5.0 phosphate buffer solution, final pH 5.0, room temperature, read-out: Concentration (saturation solubility), Mean) of 1910 µg/mL (≈ 7.14 mM) and a solubility at 12 h ([2]; pH 5.0 phosphate buffer solution, pH 5, aqueous buffer, pH 5.0 phosphate buffer solution, final pH 5.0, room temperature, read-out: Concentration (saturation solubility), Test solution 1) of 1910 µg/mL (≈ 7.14 mM). For the same molecule, the solubility at 12 h ([2]; pH 5.0 phosphate buffer solution, pH 5, aqueous buffer, pH 5.0 phosphate buffer solution, final pH 5.0, room temperature, read-out: Concentration (saturation solubility), Test solution 2) was 1910 µg/mL (≈ 7.14 mM), the solubility at 12 h ([2]; pH 6.5 phosphate buffer solution, pH 6.5, aqueous buffer, pH 6.5 phosphate buffer solution, final pH 6.6, room temperature, read-out: Concentration (saturation solubility), Mean) was 1860 µg/mL (≈ 6.95 mM) and the solubility at 12 h ([2]; pH 6.5 phosphate buffer solution, pH 6.5, aqueous buffer, pH 6.5 phosphate buffer solution, final pH 6.6, room temperature, read-out: Concentration (saturation solubility), Test solution 1) was 1860 µg/mL (≈ 6.95 mM). For the same molecule, the solubility at 12 h ([2]; pH 6.5 phosphate buffer solution, pH 6.5, aqueous buffer, pH 6.5 phosphate buffer solution, final pH 6.6, room temperature, read-out: Concentration (saturation solubility), Test solution 2) was 1860 µg/mL (≈ 6.95 mM), the solubility at 12 h ([2]; pH 8.0 phosphate buffer solution, pH 8, aqueous buffer, pH 8.0 phosphate buffer solution, final pH 8.0, room temperature, read-out: Concentration (saturation solubility), Mean) was 1810 µg/mL (≈ 6.76 mM) and the solubility at 12 h ([2]; pH 8.0 phosphate buffer solution, pH 8, aqueous buffer, pH 8.0 phosphate buffer solution, final pH 8.0, room temperature, read-out: Concentration (saturation solubility), Test solution 1) was 1800 µg/mL (≈ 6.72 mM). It also gave a solubility at 12 h ([2]; pH 8.0 phosphate buffer solution, pH 8, aqueous buffer, pH 8.0 phosphate buffer solution, final pH 8.0, room temperature, read-out: Concentration (saturation solubility), Test solution 2) of 1820 µg/mL (≈ 6.8 mM), a solubility at 12 h ([2]; purified water, pH 6.2, water, Purified water, final pH 6.2, room temperature, read-out: Concentration (saturation solubility), Mean) of 1800 µg/mL (≈ 6.72 mM) and a solubility at 12 h ([2]; purified water, pH 6.2, water, Purified water, final pH 6.2, room temperature, read-out: Concentration (saturation solubility), Test solution 1) of 1800 µg/mL (≈ 6.72 mM). The solubility at 12 h ([2]; purified water, pH 6.2, water, Purified water, final pH 6.2, room temperature, read-out: Concentration (saturation solubility), Test solution 2) was 1810 µg/mL (≈ 6.76 mM).
